Source: patent US10457677B2 (priority 2015, dated 2019)

What follows are compounds tested against purified human recombinant ATM (ataxia telangiectasia mutated), full length (Homo sapiens (Human), UniProt Q13315) (assay: ATM kinase assay - determination of ATM inhibition (IC50 ATM), TR-FRET). Conditions: 10 μM ATP, substrate p53.
Type: biochemical
Description: ATM kinase assay—determination of ATM inhibition (IC50 ATM):
The IC50 value was determined with the aid of a biochemical ATM kinase assay. The assay consists of two steps: the enzymatic reaction and the detection step. Firstly, ATM (ataxia telangiectasia mutated) protein and the test substance are incubated at different concentrations with addition of substrate protein p53 and ATP. ATM mediates the phosphorylation of p53 at several positions, including at amino acid S15. The amount of phosphorylated p53 is determined with the aid of specific antibodies and the TR-FRET technique. The enzymatic ATM assay is carried out as TR-FRET (HTRF™, Cisbio Bioassays) based 384-well assay. In the first step, purified human recombinant ATM (human ATM, full length, GenBank ID NM_000051, expressed in a mammal cell line) is incubated in assay buffer for 15 minutes with the ATM inhibitor in various concentrations and without test substance as negative or neutral control. The assay buffer comprises 25 mM HEPES pH 8.0, 10 mM Mg(CH3COO)2, 1 mM MnCl2, 0,1% BSA and 0,01% Brij® 35, 5 mM dithiothreitol (DTT). […] In the second step, purified human recombinant cmyc-labelled p53 (human p53, full length, GenBank ID BC003596, expressed in Sf21 insect cells) and ATP are added, and the reaction mixture is incubated at 22° C. for 30-35 minutes. The pharmacologically relevant assay volume is 5 μl. […] The enzymatic reaction is stopped by addition of EDTA. […] After incubation, usually for 2 hours (between 1.5 and 15h), for signal development, the plates are analysed in a plate reader (EnVision, PerkinElmer) using TRF mode (and with laser excitation). […] The measurement data were processed by means of Genedata Screener software.

Chain of purified human recombinant ATM (ataxia telangiectasia mutated), full length (Q13315 whole entry, change not shown): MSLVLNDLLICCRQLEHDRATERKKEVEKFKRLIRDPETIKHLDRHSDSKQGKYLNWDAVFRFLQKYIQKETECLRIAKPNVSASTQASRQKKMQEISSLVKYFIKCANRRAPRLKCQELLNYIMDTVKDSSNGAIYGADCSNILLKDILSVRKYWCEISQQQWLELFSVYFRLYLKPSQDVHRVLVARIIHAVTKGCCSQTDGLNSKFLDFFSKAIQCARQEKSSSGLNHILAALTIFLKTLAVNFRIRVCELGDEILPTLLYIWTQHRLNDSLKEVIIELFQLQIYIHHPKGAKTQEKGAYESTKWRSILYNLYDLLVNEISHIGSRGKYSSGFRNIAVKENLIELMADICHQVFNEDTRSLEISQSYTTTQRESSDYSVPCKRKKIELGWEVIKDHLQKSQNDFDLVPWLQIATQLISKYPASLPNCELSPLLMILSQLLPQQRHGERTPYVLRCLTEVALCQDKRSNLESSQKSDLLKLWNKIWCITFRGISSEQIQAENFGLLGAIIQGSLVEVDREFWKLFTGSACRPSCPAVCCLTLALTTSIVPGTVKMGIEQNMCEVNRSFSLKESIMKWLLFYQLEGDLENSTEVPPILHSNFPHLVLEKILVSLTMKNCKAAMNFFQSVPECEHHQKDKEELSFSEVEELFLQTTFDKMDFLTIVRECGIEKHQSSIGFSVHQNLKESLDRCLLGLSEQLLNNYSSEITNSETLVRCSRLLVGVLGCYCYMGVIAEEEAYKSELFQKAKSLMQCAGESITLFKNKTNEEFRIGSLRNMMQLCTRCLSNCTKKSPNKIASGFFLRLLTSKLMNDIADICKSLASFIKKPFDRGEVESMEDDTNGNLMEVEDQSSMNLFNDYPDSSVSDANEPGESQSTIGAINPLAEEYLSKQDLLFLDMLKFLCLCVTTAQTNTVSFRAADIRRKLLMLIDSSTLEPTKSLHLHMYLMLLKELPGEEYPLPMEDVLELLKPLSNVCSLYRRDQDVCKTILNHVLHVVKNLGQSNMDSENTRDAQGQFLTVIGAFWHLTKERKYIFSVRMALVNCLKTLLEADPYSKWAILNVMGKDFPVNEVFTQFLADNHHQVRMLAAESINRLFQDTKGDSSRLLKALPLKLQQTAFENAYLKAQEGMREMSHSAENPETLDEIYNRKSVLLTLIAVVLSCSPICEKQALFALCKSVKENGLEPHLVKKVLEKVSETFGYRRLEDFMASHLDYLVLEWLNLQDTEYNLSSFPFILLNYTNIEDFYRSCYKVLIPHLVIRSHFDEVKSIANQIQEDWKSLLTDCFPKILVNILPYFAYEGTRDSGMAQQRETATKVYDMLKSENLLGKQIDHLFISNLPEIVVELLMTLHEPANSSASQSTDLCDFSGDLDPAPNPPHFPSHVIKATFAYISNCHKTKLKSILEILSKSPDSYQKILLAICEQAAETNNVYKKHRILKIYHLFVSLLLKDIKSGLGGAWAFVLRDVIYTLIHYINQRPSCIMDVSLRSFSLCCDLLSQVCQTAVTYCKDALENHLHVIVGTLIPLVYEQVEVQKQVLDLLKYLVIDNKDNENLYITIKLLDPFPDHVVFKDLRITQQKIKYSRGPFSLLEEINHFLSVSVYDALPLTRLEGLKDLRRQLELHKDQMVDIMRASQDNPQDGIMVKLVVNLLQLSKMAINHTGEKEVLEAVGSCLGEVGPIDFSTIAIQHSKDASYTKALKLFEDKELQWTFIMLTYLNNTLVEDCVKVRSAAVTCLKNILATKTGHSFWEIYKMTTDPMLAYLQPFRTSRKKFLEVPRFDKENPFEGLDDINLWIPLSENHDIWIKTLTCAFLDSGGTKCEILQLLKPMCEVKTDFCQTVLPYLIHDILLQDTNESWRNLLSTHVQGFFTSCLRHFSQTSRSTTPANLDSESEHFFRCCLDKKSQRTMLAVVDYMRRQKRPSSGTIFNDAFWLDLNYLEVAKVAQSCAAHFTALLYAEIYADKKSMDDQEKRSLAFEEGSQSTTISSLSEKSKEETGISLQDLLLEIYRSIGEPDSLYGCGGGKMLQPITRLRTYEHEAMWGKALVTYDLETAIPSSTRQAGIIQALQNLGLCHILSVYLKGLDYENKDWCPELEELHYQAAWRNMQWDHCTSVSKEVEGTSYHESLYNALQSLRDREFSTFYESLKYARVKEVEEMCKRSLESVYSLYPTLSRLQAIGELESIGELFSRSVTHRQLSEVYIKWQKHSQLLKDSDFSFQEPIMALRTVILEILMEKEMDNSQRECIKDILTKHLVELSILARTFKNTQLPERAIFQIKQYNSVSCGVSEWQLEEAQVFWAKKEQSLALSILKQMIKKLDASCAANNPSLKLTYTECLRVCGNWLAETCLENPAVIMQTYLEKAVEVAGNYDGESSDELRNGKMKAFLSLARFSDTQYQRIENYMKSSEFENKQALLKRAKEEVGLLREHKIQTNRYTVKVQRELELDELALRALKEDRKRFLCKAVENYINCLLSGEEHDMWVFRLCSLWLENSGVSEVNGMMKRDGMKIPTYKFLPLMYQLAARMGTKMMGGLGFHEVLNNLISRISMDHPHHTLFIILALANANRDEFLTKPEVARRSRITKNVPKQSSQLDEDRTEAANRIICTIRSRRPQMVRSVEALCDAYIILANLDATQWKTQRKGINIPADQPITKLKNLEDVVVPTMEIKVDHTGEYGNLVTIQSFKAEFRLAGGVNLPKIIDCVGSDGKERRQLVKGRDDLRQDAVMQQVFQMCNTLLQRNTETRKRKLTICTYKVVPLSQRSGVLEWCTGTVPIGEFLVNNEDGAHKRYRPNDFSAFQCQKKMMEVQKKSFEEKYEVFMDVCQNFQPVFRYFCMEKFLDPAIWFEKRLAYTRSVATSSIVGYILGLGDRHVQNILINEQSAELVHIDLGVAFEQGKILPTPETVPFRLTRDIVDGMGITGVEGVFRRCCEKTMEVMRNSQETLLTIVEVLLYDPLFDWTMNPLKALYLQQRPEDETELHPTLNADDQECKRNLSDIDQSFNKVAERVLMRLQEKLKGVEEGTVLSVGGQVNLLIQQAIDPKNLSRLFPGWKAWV

`COc1cc2ncc3c(c2cc1-c1cnn(C(F)F)c1)n(-c1c(F)cncc1OC)c(=O)n3C` [compound 143, 8-(1-Difluoromethyl-1H-pyrazol-4-yl)-1-(3-fluoro-5-methoxypyridin-4-yl)-7-methoxy-3-methyl-1,3-dihydroimidazo[4,5-c] quinolin-2-one] and `COc1cc2ncc3c(c2cc1-c1cnn(C2CNC2)c1)n(-c1c(F)cncc1OC)c(=O)n3C` [compound 208, 8-[1-(Azetidin-3-yl)-1H-pyrazol-4-yl]-1-(3-fluoro-5-methoxypyridin-4-yl)-7-methoxy-3-methyl-1H,2H,3H-imidazo[4,5-c]-quinolin-2-one] cannot be ordered by IC50: under 1 nM for the first, under 10 nM for the second.

`C=CCOc1cnc(-n2c(=O)n(C)c3cnc4cc(OC)c(-c5cnn(C)c5)cc4c32)c(F)c1` [compound 204, 1-(5-Allyloxy-3-fluoropyridin-2-yl)-7-methoxy-3-methyl-8-(1-methyl-1H-pyrazol-4-yl)-1,3-dihydroimidazo[4,5-c]-quinolin-2-one] and `CCOc1cnc(-n2c(=O)n(C)c3cnc4cc(OC)c(-c5cnn(C)c5)cc4c32)c(F)c1` [compound 113, 1-(5-Ethoxy-3-fluoropyridin-2-yl)-7-methoxy-3-methyl-8-(1-methyl-1H-pyrazol-4-yl)-1,3-dihydroimidazo[4,5-c]-quinolin-2-one] cannot be ordered by IC50: under 1 nM for the first, under 1 nM for the second.

`CCn1cc(-c2cc3c(cc2OC)ncc2c3n(-c3ncc(OC)cc3F)c(=O)n2C)cn1` [compound 111, 8-(1-Ethyl-1H-pyrazol-4-yl)-1-(3-fluoro-5-methoxy-pyridin-2-yl)-7-methoxy-3-methyl-1,3-dihydroimidazo-[4,5-c] quinolin-2-one] and `COc1cnc(-n2c(=O)n(C)c3cnc4cc(OC)c(-c5cn(C)nc5C)cc4c32)c(F)c1` [compound 106, 8-(1,3-Dimethyl-1H-pyrazol-4-yl)-1-(3-fluoro-5-methoxypyridin-2-yl)-7-methoxy-3-methyl-1,3-dihydroimidazo[4,5-c]-quinolin-2-one] cannot be ordered by IC50: under 10 nM for the first, under 1 nM for the second.

`CCn1cc(-c2cc3c(cc2OC)ncc2c3n(-c3c(F)cncc3OC)c(=O)n2C)c(C)n1` [compound 142, 8-(1-Ethyl-3-methyl-1H-pyrazol-4-yl)-1-(3-fluoro-5-methoxypyridin-4-yl)-7-methoxy-3-methyl-1,3-dihydroimidazo[4,5-c] quinolin-2-one] and `COc1cc2ncc3c(c2cc1-c1cn(C)nn1)n(-c1c(F)cncc1OC)c(=O)n3C` [compound 131, 1-(3-Fluoro-5-methoxy-pyridin-4-yl)-7-methoxy-3-methyl-8-(1-methyl-1H-1,2,3-triazol-4-yl)-1,3-dihydroimidazo[4,5-c]-quinolin-2-one] cannot be ordered by IC50: under 1 nM for the first, under 10 nM for the second.

`COc1cc2ncc3c(c2cc1-c1cnn(C)c1)n(-c1ccc2cc[nH]c2n1)c(=O)n3C` [compound 69, 7-Methoxy-3-methyl-8-(1-methyl-1H-pyrazol-4-yl)-1-(1H-pyrrolo[2,3-b]pyridin-6-yl)1,3-dihydroimidazo-[4,5-c]quinolin-2-one] and `COc1cc2ncc3c(c2cc1-c1cnn(C)c1)n(-c1ccc(C#N)cn1)c(=O)n3C` [Compound Example 48, 6-[7-Methoxy-3-methyl-8-(1-methyl-1H-pyrazol-4-yl)-2-oxo-2,3-dihydroimidazo-[4,5-c]quinolin-1-yl]-nicotinonitrile] cannot be ordered by IC50: under 1 nM for the first, under 10 nM for the second.

`COc1cc2ncc3c(c2cc1-c1cnn(C)c1)n(-c1c(F)cncc1OCF)c(=O)n3C` [compound 148] and `COc1cc2ncc3c(c2cc1-c1cnn(C)c1)n(-c1c(F)cncc1C1CC1)c(=O)n3C` [compound 202, 1-(3-Cyclopropyl-5-fluoro-pyridin-4-yl)-7-methoxy-3-methyl-8-(1-methyl-1H-pyrazol-4-yl)-1,3-dihydro-imidazo[4,5-c]quinolin-2-one] cannot be ordered by IC50: under 1 nM for the first, under 1 nM for the second.

`COc1cc2ncc3[nH]c(=O)n(-c4c(F)cncc4OC)c3c2cc1-c1cn(C)nc1C` [compound 129, 8-(1,3-Dimethyl-1H-pyrazol-4-yl)-1-(3-fluoro-5-methoxy-pyridin-4-yl)-7-methoxy-1,3-dihydroimidazo[4,5-c]-quinolin-2-one] and `COc1cc2ncc3c(c2cc1-c1ccn[nH]1)n(-c1c(F)cncc1OC)c(=O)n3C` [compound 124, 1-(3-Fluoro-5-methoxy-pyridin-4-yl)-7-methoxy-3-methyl-8-(2H-pyrazol-3-yl)-1,3-dihydroimidazo[4,5-c] quinolin-2-one] cannot be ordered by IC50: under 1 nM for the first, under 50 nM for the second.

`COc1cc2ncc3c(c2cc1-c1cc(N)n[nH]1)n(-c1ncccc1F)c(=O)n3C` [compound 65, 8-(3-Amino-1H-pyrazol-5-yl)-1-(3-fluoro-2-pyridyl)-7-methoxy-3-methyl-imidazo-[4,5-c]quinolin-2-one] and `COc1cnc(-n2c(=O)n(C)c3cnc4cc(OC)c(-c5cnn[nH]5)cc4c32)c(F)c1` [compound 128, 1-(3-Fluoro-5-methoxy-pyridin-2-yl)-7-methoxy-3-methyl-8-(3H-1,2,3-triazol-4-yl)-1,3-dihydroimidazo-[4,5-c] quinolin-2-one] cannot be ordered by IC50: under 1 nM for the first, under 10 nM for the second.

`COc1cnc(-n2c(=O)[nH]c3cnc4cc(OC)c(-c5cnn(C)c5)cc4c32)c(F)c1` [compound 115, 1-(3-Fluoro-5-methoxy-pyridin-2-yl)-7-methoxy-8-(1-methyl-1H-pyrazol-4-yl)-1,3-dihydroimidazo[4,5-c]-quinolin-2-one] and `COc1cc2ncc3[nH]c(=O)n(-c4ncc(F)cc4F)c3c2cc1-c1cnn(C)c1` [compound 107, 1-(3,5-Difluoropyridin-2-yl)-7-methoxy-8-(1-methyl-1H-pyrazol-4-yl)-1,3-dihydro-imidazo[4,5-c]quinolin-2-one] cannot be ordered by IC50: under 10 nM for the first, under 1 nM for the second.

`COc1cc2ncc3c(c2cc1-c1cnn(C)n1)n(-c1cn(C)nc1C)c(=O)n3C` [compound 102, 1-(1,3-Dimethyl-1H-pyrazol-4-yl)-7-methoxy-3-methyl-8-(2-methyl-2H-1,2,3-triazol-4-yl)-1,3-dihydroimidazo-[4,5-c]quinolin-2-one] and `COc1cc2ncc3c(c2cc1-c1cn(C)nn1)n(-c1cn(C)nc1C)c(=O)n3C` [Compound Example 42, 1-(1,3-Dimethyl-1H-pyrazol-4-yl)-7-methoxy-3-methyl-8-(1-methyl-1H-1,2,3-triazol-4-yl)-1,3-dihydroimidazo-[4,5-c]quinolin-2-one] cannot be ordered by IC50: under 50 nM for the first, under 10 nM for the second.

`COc1cc2ncc3c(c2cc1-c1cnn(C)c1)n(-c1ncccn1)c(=O)n3C` [Compound Example 52, 7-Methoxy-3-methyl-8-(1-methyl-1H-pyrazol-4-yl)-1-pyrimidin-2-yl-1,3-dihydro-imidazo[4,5-c]quinolin-2-one] and `COc1cc2ncc3c(c2cc1-c1cnn(C)c1)n(-c1ccncc1C1CC1)c(=O)n3C` [compound 200, 1-(3-Cyclopropylpyridin-4-yl)-7-methoxy-3-methyl-8-(1-methyl-1H-pyrazol-4-yl)-1,3-dihydroimidazo[4,5-c] quinolin-2-one] cannot be ordered by IC50: under 10 nM for the first, under 50 nM for the second.

`COc1cc2ncc3c(c2cc1-c1cn(C)nc1C)n(-c1ncc(OCS(C)(=O)=O)cc1F)c(=O)n3C` [compound 203, 8-(1,3-Dimethyl-1H-pyrazol-4-yl)-1-(3-fluoro-5-methyl-sulfonylmethoxypyridin-2-yl)-7-methoxy-3-methyl-1,3-dihydroimidazo[4,5-c]-quinolin-2-one] and `CNC(=O)c1cnc(-n2c(=O)n(C)c3cnc4cc(OC)c(-c5cn(C)nc5C)cc4c32)c(F)c1` [compound 139, 6-[8-(1,3-Dimethyl-1H-pyrazol-4-yl)-7-methoxy-3-methyl-2-oxo-2,3-dihydro-imidazo[4,5-c]quinolin-1-yl]-5-fluoro-N-methyl-nicotinamid] cannot be ordered by IC50: under 1 nM for the first, under 1 nM for the second.

`CCc1cncc(F)c1-n1c(=O)n(C)c2cnc3cc(OC)c(-c4cnn(C)n4)cc3c21` [compound 112, 1-(3-Ethyl-5-fluoropyridin-4-yl)-7-methoxy-3-methyl-8-(2-methyl-2H-1,2,3-triazol-4-yl)-1,3-dihydroimidazo-[4,5-c] quinolin-2-one] and `COc1cc2ncc3c(c2cc1-c1cn(C)nn1)n(-c1c(C)cncc1F)c(=O)n3C` [compound 63, 1-(3-Fluoro-5-methylpyridin-4-yl)-7-methoxy-3-methyl-8-(1-methyl-1H-1,2,3-triazol-4-yl)-1,3-dihydroimidazo-[4,5-c] quinolin-2-one] cannot be ordered by IC50: under 10 nM for the first, under 10 nM for the second.

`COc1cc2ncc3c(c2cc1-c1ccc2nc(C)[nH]c2c1)n(-c1cn(C)nc1C)c(=O)n3C` [compound 132, 1-(1,3-Dimethyl-1H-pyrazol-4-yl)-7-methoxy-3-methyl-8-(2-methyl-3H-benzo-imidazol-5-yl)-1,3-dihydro-imidazo[4,5-c]quinolin-2-one] and `CCn1cc(-n2c(=O)n(C)c3cnc4cc(OC)c(-c5cnn(C)c5)cc4c32)c(C)n1` [compound 130, 1-(1-Ethyl-3-methyl-1H-pyrazol-4-yl)-7-methoxy-3-methyl-8-(1-methyl-1H-pyrazol-4-yl)-1,3-dihydro-imidazo[4,5-c]quinolin-2-one] cannot be ordered by IC50: under 1 nM for the first, under 1 nM for the second.
